Results published in US5340823A, “Organosilane derivatives, pharmaceutical compositions containing them and process for preparing same” (Richter Gedeon Vegyeszeti Gyar RT., priority 1990, dated 1994).
Read-outs that look alike come from different tables or passages of the source.

Legend:
[1] = test system: GYKI-20039-induced tremor; assay: GYKI-20039-induced tremor test on mice; assay type: in vivo, mice (male CFLP); details: for ED50: Mus musculus
Experimental: After administration of the test substance the mice were suspended on an isometric dynamometer in a light plastic box and the strength of the tremor was measured and quantified by electronic integration. The tremor strength of mice was averaged in the 4th-5th minutes following the treatment with 10 the test substance.
The animals were pretreated with various doses of the muscle relaxants to be tested before administration of the test substance. The time of pretreatment was 0 in intravenous examinations, whereas a pretreatment time of 10 minutes was used in oral investigations.
(§1) For the verification of the oral activity the tremor test was used on mice whereas the flexor reflex was investigated by using intraduodenal (i.d.) administration.

Straub's tail = Straub's tail test (morphine hydrochloride) on mice; assay type: in vivo, mice (male OF-1); details: for ED50: Mus musculus, ip, read-out: Straub's tail ED50 i.p.
Experimental: Method 2: Straub's tail test
The method of Novack [Drug Development Res. 2, 383 (1982)] was used with some modification. Groups consisting of 10 male OF-1 mice each weighing 19 to 21 g were intraperitoneally treated with 60 mg/kg of morphine hydrochloride. The formation (development) of Straub's stail was judged by 15 minutes after the morphine treatment. It was considered to be positive when the animal permanently kept his tail upwards in an angle being steeper than 45°. A pretreatment was carried out with various doses of the compound to be tested by 20 minutes before the time of reading. The ED50 value, i.e. the dose inhibiting the positive response in 50% of the animals, was calculated by using the method of Litchfield and Wilcoxon.
(The above author found a good correlation between the effectivity shown in this test method and the clinical effect of central muscle relaxants.)

flexor reflex = assay: Flexor reflex on anaesthetized cats; assay type: in vivo
Experimental: Method 3: Flexor reflex on anaesthetized cats
Chloralose-anaesthetized cats of both sexes weighing 2.2 to 5.4 kg each were used in these experiments. The flexor reflex of the animals was assessed by using the quantitative electromyographic method of Farkas et al. [Pharmacol. Res. Comm. 20, Suppl. 1, 141 (1988)].
[…] For characterization of duration of the effect the time (T75%) is shown, which passed after administration of this dose up to the return to 75% of the control value.
as §1

[2] = Acute toxicity and therapeutic ratio on mice; assay type: in vivo; details: mouse, in vivo; for selectivity ratio: mice, LD50 to tremor ED50
Experimental: (§2) Method 4: Study on the acute toxicity
(§3) These experiments were carried out on groups consisting of 10 male and 10 female mice each weighing 19 to 21 g. For the determination of the intravenous toxicity the substances to be tested were dissolved in 10 ml/kg of body-weight of physiological saline and injected to the tail vein of CFLP mice during 1 minute. For evaluation of the oral toxicity the substances to be tested were dissolved in 10 ml/kg of body-weight of physiological saline and introduced to the stomach of OF-1 mice by using a rigid gastric tube. The perishing ratio of the animals was evaluated by 48 hours following the administration of the substance to be tested. The LD50 value, i.e. the dose causing the death of 50% of the animals was calculated by using the method of Litchfield and Wilcoxon. The therapeutic (safety) ratio was determined as the ratio of the LD50 value to ED50 value shown in the GYKI-20039-induced tremor test.

mice = assay: Acute toxicity and therapeutic ratio on mice; assay type: in vivo; details: mice, i.v. and oral
Experimental: as §2, §3

[3] = test system: GYKI-20039-induced tremor; details: mice; literature (Coward et al.; Andrasi et al.); cited from earlier work
[4] = iv, pretreatment time 0, Table 1, read-out: GYKI-20039 (tremor) ED50 i.v.
[5] = 10 mg/kg i.v., time up to return to 75% of control
[6] = mice, i.p., 60 mg/kg morphine hydrochloride, Table 1
[7] = iv, Table 3, read-out: Muscle relaxant effect, Tremor ED50 i.v.
[8] = po, Table 3, read-out: Muscle relaxant effect, Tremor ED50 p.o.
[9] = po, pretreatment 10 minutes, Table 2, read-out: Tremor test ED50 p.o.
[10] = iv, CFLP mice, i.v., read-out: Acute toxicity LD50 i.v.
[11] = iv, i.v., read-out: Therapeutic ratio LD50/ED50 i.v.
[12] = po, OF-1 mice, p.o., read-out: Acute toxicity LD50 p.o.
[13] = po, p.o., read-out: Therapeutic ratio LD50/ED50 p.o.

## C[Si](C)(CCCN1CCCCC1)Cc1ccccc1.Cl [Example 19, N -[(benzyldimethylsilyl)propyl]piperidine hydrochloride]
[1]; [4]
  ED50: 3.6 mg/kg
Straub's tail
  ED50: 22.3 mg/kg
Flexor reflex; [5]
  Flexor reflex, duration of effect T75%: > 180 min

## Cc1ccc(C[Si](C)(C)N2CCCCC2)c(C)c1.Cl [Example 34]
[1]; i.v., pretreatment time 0, Table 1
  GYKI-20039 (tremor) ED50 i.v.: 8.7 mg/kg
Straub's tail; [6]
  Straub's tail ED50 i.p.: 30.7 mg/kg
Flexor reflex; i.v., 5 mg/kg (footnote *)
  Flexor reflex, duration of effect T75%: 120 min
  inhibition of flexor reflex: 53%

## Cc1ccc(C(=O)C(C)CN2CCCCC2)cc1 (centres unmarked) [Tolperisone, tolperisone, reference compound]
[1]; [7]
  ED50: 10.1 mg/kg
[1]; [8]
  ED50: 338 mg/kg
[1]; [9]
  ED50: 338 mg/kg
Straub's tail; [6]
  ED50: 63 mg/kg
[2]; [10]
  LD50 at 48 h: 39.8 mg/kg
[2]; [11]
  selectivity ratio: 3.9
[2]; [12]
  LD50 at 48 h: 612 mg/kg
[2]; [13]
  selectivity ratio: 1.8
Flexor reflex; [5]
  Flexor reflex, duration of effect T75%: 50 min
Flexor reflex; 25 mg/kg i.d.
  Flexor reflex, T75%: 60 min
  Flexor reflex, maximum inhibition: 33.1%
Flexor reflex; 50 mg/kg i.d.
  Flexor reflex, T75%: 140 min
  Flexor reflex, maximum inhibition: 76.6%

## CCc1ccc(C(=O)C(C)CN2CCCCC2)cc1 (centres unmarked) [Eperisone, eperisone, reference compound]
[1]; [7]
  ED50: 7.8 mg/kg
[1]; [4]
  ED50: 7.8 mg/kg
[1]; [8]
  ED50: 126 mg/kg
[1]; [9]
  ED50: 126 mg/kg
Straub's tail; [6]
  ED50: 63.6 mg/kg
[2]; [10]
  LD50 at 48 h: 53.4 mg/kg
[2]; [11]
  selectivity ratio: 6.8
[2]; [12]
  LD50 at 48 h: 320 mg/kg
[2]; [13]
  selectivity ratio: 2.5
Flexor reflex; [5]
  Flexor reflex, duration of effect T75%: 90 min
Flexor reflex; 25 mg/kg i.d.
  Flexor reflex, T75%: 60 min
  Flexor reflex, maximum inhibition: 38.5%
Flexor reflex; 50 mg/kg i.d.
  Flexor reflex, T75%: 190 min
  Flexor reflex, maximum inhibition: 74.8%

## C[Si](C)(Cc1ccc(F)cc1)CN1CCCCC1.Cl [Example 2, N-{[dimethyl-(4-fluorobenzyl)silyl]methyl}piperidine hydrochloride]
[1]; [7]
  ED50: 2.8 mg/kg
[1]; [4]
  ED50: 2.8 mg/kg
[1]; [8]
  ED50: 27.6 mg/kg
[1]; [9]
  ED50: 27.6 mg/kg
[1]; oral route
  activity relative to eperisone: 5 times
  activity relative to tolperisone: 10 times
Straub's tail
  ED50: 21.8 mg/kg
mice
  therapeutic ratio in comparison to the reference drugs: significantly more advantageous
[2]; [10]
  LD50 at 48 h: 25.5 mg/kg
[2]; [11]
  selectivity ratio: 9.1
[2]; [12]
  LD50 at 48 h: 228 mg/kg
[2]; [13]
  selectivity ratio: 8.3
Flexor reflex; [5]
  Flexor reflex, duration of effect T75%: > 180 min
Flexor reflex; 12.5 mg/kg i.d.
  Flexor reflex, T75%: 230 min
  Flexor reflex, maximum inhibition: 44.8%
Flexor reflex; 25 mg/kg i.d.
  Flexor reflex, T75%: > 300 min
  Flexor reflex, maximum inhibition: 82.1%
Flexor reflex; i.d.
  duration of effect compared with 4-fold doses of the reference drugs: exceeded even the duration of effect of 4-fold doses of the reference drugs
Flexor reflex; i.d., vs tolperisone and eperisone
  dose needed to achieve a given effect relative to the dose of the reference drugs: half of the dose

## Cc1ccc(Cl)c(C[Si](C)(C)CN2CCCCC2)c1.Cl [Example 35, N-{[(2-chloro-5-methylbenzyl)-dimethylsilyl]methyl}piperidine hydrochlorid]
[1]; [4]
  ED50: 3.7 mg/kg
Straub's tail
  ED50: 25.9 mg/kg
Flexor reflex; [5]
  Flexor reflex, duration of effect T75%: > 180 min

## C[Si](C)(Cc1ccc(F)cc1)CN1CCCC1.Cl [Example 10, N-{[dimethyl-(4-fluorobenzyl)silyl]methyl}-pyrrolidine hydrochloride]
[1]; [4]
  ED50: 2.8 mg/kg
Straub's tail
  ED50: 22 mg/kg
Flexor reflex; [5]
  Flexor reflex, duration of effect T75%: > 180 min

## Cl.N=C(Cc1c(Cl)cccc1Cl)NC(N)=O [LON-954]
[3]
  induction of tremor: induces a tremor on mice

## C[Si](C)(CCCn1ccnc1)Cc1ccc(F)cc1.Cl [Example 12, N-{[dimethyl-(4-fluorobenzyl)silyl]propyl}imidazole hydrochloride]
[1]; [4]
  ED50: 5.4 mg/kg
Straub's tail
  ED50: 26.9 mg/kg
Flexor reflex; 10 mg/kg i.v.
  inhibition of flexor reflex: 40%
Flexor reflex; [5]
  Flexor reflex, duration of effect T75%: > 180 min

## C[Si](C)(CCCN1CCCC1)Cc1ccc(F)cc1.Cl [Example 11, N-{[dimethyl-(4-fluorobenzyl)silyl]propyl}pyrrolidine hydrochloride]
[1]; [4]
  ED50: 3.8 mg/kg
Straub's tail
  ED50: 27.5 mg/kg
Flexor reflex; [5]
  Flexor reflex, duration of effect T75%: > 180 min

## N=C1SCCN1c1c(Cl)cccc1Cl [GYKI-20039, reference compound]
[1]
  induction of tremor: induces a tremor on mice
